Experimental data from patent US20060084694A1, “Ligand-dependant activation of Nur77 and uses thereof” (priority 2004, published 2006).
“Also recorded” adds a separate entry of the source.

How the values were obtained:
GAL4-Nur77(E/F) = target: T1, GAL4-Nur77(E/F) (Homo sapiens, UniProt P22736); test: GAL4-Nur77(E/F)/pGAL4 transactivation in Panc-28 cells; assay type: cell-based; details: 5-15 μM (FIG. 2A)
T1 construct: a chimeric GAL4-Nur77(E/F) construct containing only the E/F domain of Nur77; expressed in transfected cells; host or cells: Panc-28
Text: (§1) Transfection assays were essentially carried out as previously described using Lipofectamine Plus reagent (Invitrogen, Carlsbad, Calif.) and luciferase activities were normalized to β-galactosidase activity. […] Results are expressed as means±SE for at least three replicate determinations for each treatment group.
(§2) (FIG. 2A). […] The structural specificity of Nur77 antagonists was further investigated using meta-hydroxy (DIM-C-mPhOH) and ortho-hydroxy (DIM-C-oPhOH) analogs. […] Thus, activation of Nur77 by C-DIMs was E/F domain-dependent and Nur77 activation was inhibited by DIM-C-pPhOH; moreover, both activation and inhibition of Nur77-mediated transactivation was dependent on the structure of the C-DIM compounds.

[1] = target: T2, GAL4-Nur77 (full length) chimera (Homo sapiens, UniProt P22736); test: GAL4-Nur77 (full length)/pGAL4 luciferase transactivation in Panc-28 cells; assay type: cell-based; details: for luciferase activity, GAL4-Nur77 (full length)/pGAL4: Panc-28 cells, 10 or 20 μM (FIG. 1B); for Nur77 activation, structure dependence (isomers and ring-substituted analogs): FIG. 1D, analogs data not shown
T2 construct: Panc-28 cells transfected with a GAL4-Nur77 (full length) chimera; expressed in transfected cells; host or cells: Panc-28
Text: Structure-dependent activation of Nur77 by a series of eleven C-substituted DIMs was investigated in Panc-28 cells transfected with a GAL4-Nur77 (full length) chimera and a reporter construct containing five GAL4 response elements linked to a luciferase reporter gene (pGAL4).
as §1

Nur77 [2] = target: T3, Nur77 (Homo sapiens, UniProt P22736); test: Nur77 subcellular localization and level (immunostaining, Western blot of cytosolic and nuclear extracts); details: for Nur77 translocation, Western blot of cytosolic and nuclear extracts: Panc-28, 10 or 20 μM, 12 hr (FIG. 4B); for Nur77 localization by immunostaining: Panc-28 cells, 10 μM, 6 hr (FIG. 4A)
Experimental: The different cancer cell lines were cultured under standardized conditions. Panc-28 cells were grown in DMEM:Ham's F-12 media containing 2.5% charcoal stripped fetal bovine serum, and cells were treated with DMSO and different concentrations of test compounds as indicated. […] For all other assays, cytosolic, nuclear fractions, or whole cell lysates were obtained at various time points, analyzed by Western blot analysis, and bands were quantitated as previously described (Qin, et al., 2004; Abdelrahim, et al., 2002). Immunocytochemical analysis was determined using Nur77 antibodies as previously reported (Abdelrahim, et al., 2002).
Sp1 is a nuclear protein and was used as a control to ensure efficient separation of the two extracts and Sp1 was identified only in the nuclear fraction.

PPARγ = target: T4, PPARγ (Homo sapiens, UniProt P37231); details: Qin, et al., 2004, Chintharlapalli; cited from earlier work
T4 sequence (P37231 1-505): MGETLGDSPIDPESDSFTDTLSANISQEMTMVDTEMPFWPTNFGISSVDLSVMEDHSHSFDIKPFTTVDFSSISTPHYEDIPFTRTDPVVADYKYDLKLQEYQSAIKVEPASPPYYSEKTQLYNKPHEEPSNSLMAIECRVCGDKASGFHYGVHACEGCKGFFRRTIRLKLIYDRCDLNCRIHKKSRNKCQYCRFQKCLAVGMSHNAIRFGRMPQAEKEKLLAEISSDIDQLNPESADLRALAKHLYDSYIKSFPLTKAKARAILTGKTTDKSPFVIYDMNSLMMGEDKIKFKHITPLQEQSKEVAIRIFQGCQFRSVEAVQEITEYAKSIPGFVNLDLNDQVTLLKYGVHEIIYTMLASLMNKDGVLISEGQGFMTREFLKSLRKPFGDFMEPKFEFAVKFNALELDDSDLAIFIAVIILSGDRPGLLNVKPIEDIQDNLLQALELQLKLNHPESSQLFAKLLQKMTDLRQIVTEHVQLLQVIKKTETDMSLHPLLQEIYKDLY

TRAIL mRNA = TRAIL mRNA in Panc-28 cells (RT-PCR); assay type: cell-based; details: Panc-28 cells (FIG. 6B)
Experimental: cDNA was prepared from the Panc-28 cell line using a combination of oligodeoxythymidylic acid (Oligo d(T)16), and dNTP mix (Applied Biosystems) and Superscript II (Invitrogen). Each PCR was carried out in triplicate in a 20-μl volume using Sybr Green Mastermix (Applied Biosystems) for 15 min at 95° C. for initial denaturing, followed by 40 cycles of 95° C. for 30 s and 60° C. for 1 min in the ABI Prism 7700 Sequence Detection System. The ABI Dissociation Curves software was used following a brief thermal protocol (95° C. 15 s and 60° C. 20 s, followed by a slow ramp to 95° C.) to control for multiple species in each PCR amplification. Values for each gene were normalized to expression levels of TBP. The sequences of the primers used for RT-PCR were as follows: TRAIL forward, 5′-CGTGTACTTTACCAACGAGCTGA-3′, reverse, 5′-ACGGAGTTGCCACTTGACTTG-3′; and TBP forward, 5′-TGCACAGGAGCCAAGAGTGAA-3′, reverse, 5′-CACATCACAGCTCCCCACCA-3′.

GAL4-Nur77 = target: T5, GAL4-Nur77 (Homo sapiens, UniProt P22736); test: Nur77 antagonist assay: cotreatment with Nur77 agonists, GAL4-Nur77/pGAL4 in Panc-28 cells; assay type: cell-based; details: for Nur77 antagonist activity (inhibition of agonist-induced transactivation): Panc-28, cotreatment with Nur77 agonists, 10 or 20 μM (FIG. 2C-2E)
T5 construct: expressed in transfected cells; host or cells: Panc-28
Text: as §1, §2

[3] = target: VP-Nur77 (ligand binding domain) / GAL4-coactivator chimeras (Homo sapiens, UniProt P22736); details: Panc-28, VP-Nur77
Experimental: Panc-28 cells were plated in 12-well plates at 1×10^5 cells/well in DME-F12 media supplemented with 2.5% charcoal-stripped FBS. After growth for 16 hr, various amounts of DNA, i.e. Gal4Luc (0.4 μg), β-gal (0.04 μg), VP-Nur77(E/F) (0.04 μg), pM SRC1 (0.04 μg), pMSRC2 (0.04 μg), pMSRC3 (0.04 μg), pMDRIP205 (0.04 μg) and pMCARM-1 (0.04 μg) were transfected by Lipofectamine (Invitrogen) according to the manufacturer's protocol. After 5 hr of transfection, the transfection mix was replaced with complete media containing either vehicle (DMSO) or the indicated ligand for 20-22 hr. Cells were then lysed with 100 ml of 1X reporter lysis buffer, and 30 μl of cell extract were used for luciferase and β-Gal assays. Lumicount was used to quantitate luciferase and β-Gal activities, and the luciferase activities were normalized to β-Gal activity.
Ligand-induced Nur77-coactivator interactions were determined using a construct (pGAL4) containing 5 GAL4 response elements. Coactivators used in this study include SRC-1, SRC-2 (TIFII), SRC-3 (AIB1), PGC-1, TRAP220 and CARM-1. A GAL4-repressor (SMRT) chimera was also included in the assay.

Panc-28 cell xenografts = test: Tumor growth in athymic nude mice bearing Panc-28 cell xenografts; assay type: in vivo, athymic nude mice (BALB/c)
Experimental: Male athymic nude mice (BALB/c, ages 8-12 weeks) were purchased from Harlan (Indianapolis, Ind.). The mice were housed and maintained in laminar flow cabinets under specific pathogen-free conditions. Panc-28 cells were harvested from subconfluent cultures by trypsinization and washed. Panc-28 cells (2×10^6) were injected subcutaneously into each mouse on both flanks using a 30-gauge needle. The tumors were allowed to grow for 11 days until tumors were palpable. Mice were then randomized into two groups of seven mice per group and dosed by oral gavage with either corn oil or DIM-C-pPhOCH3 every second day. The volume of corn oil was 75 μl, and the dose of DIM-C-pPhOCH3 was 25 mg/kg/day. The mice were weighed, and tumor areas were also measured ever other day. Final body and tumor weights were determined at the end of the dosing regiment; and selected tissues were further examined by routine H & E staining and immunohistochemical analysis for apoptosis using the TUNEL assay.

Panc-28 cells [4] = test: Annexin V-Alexa-488 / propidium iodide apoptosis assay in Panc-28 cells; assay type: cell-based; details: for annexin V-stained cells: Panc-28, 10 and 20 μM, 8 and 12 hr (FIG. 5C)
Experimental: Detection of phosphatidylserine on the outside of the cell membrane, a unique and early marker for apoptosis, was performed using a commercial kit (Vybrant Apoptosis Assay Kit #2; Molecular Probes, Eugene, Oreg.). […] Binding of annexin V-Alexa-488 conjugate and propidium iodide (PI) was performed according to the manufacturer's instructions. After binding and washing, cells were observed under phase contrast and epifluorescent illumination using a 495-nm excitation filter and a 520-nm absorption filter for annexin V-Alexa 488 and a 546-nm excitation filter and a 590-nm absorption filter for PI. Healthy cells were unstained by either dye; cells in early stages of apoptosis were stained only by annexin V, while dead cells were stained by annexin V and PI. The assay was repeated on three separate Panc-28 cell preparations.

Nur77 [5] = target: T3, Nur77; test: Nur response element (NurRE) luciferase transactivation in Panc-28 cells; assay type: cell-based; set-up: endogenous in cells; host or cells: Panc-28; details: 10 or 20 μM (FIG. 1C)
Panc-28 cells [6] = test: Cell survival of Panc-28 cells; assay type: cell-based
Experimental: The different cancer cell lines were cultured under standardized conditions. Panc-28 cells were grown in DMEM:Ham's F-12 media containing 2.5% charcoal stripped fetal bovine serum, and cells were treated with DMSO and different concentrations of test compounds as indicated. For longer term cell survival studies, the media was changed every second day, and values were presented for a 4 day experiment.

TRAIL = TRAIL protein expression in Panc-28 cells (Western blot); assay type: cell-based
Text: In thymocytes, there is evidence that Nur77-induced apoptosis is linked to transcriptional activation (uang, et al., 1999), and microarray studies in thymocytes undergoing Nur77-dependent apoptosis identified several apoptosis-related genes including fasL and TRAIL (Rajpal, et al., 2003). […] (FIG. 6B). Since TRAIL activates the extrinsic apoptosis pathway and activation of caspase 8, the effect of a caspase 8 inhibitor (Z-IETD-FMK) and the pan-caspase inhibitor (Z-VAD-FMK) was also investigated on induction of PARP cleavage by Nur77 agonists (FIG. 6C).

PARP cleavage = PARP cleavage in Panc-28 cells (Western blot); assay type: cell-based; details: for effect of leptomycin B on PARP cleavage induced by Nur77 agonists: Panc-28, LMB 1 ng/ml cotreatment (FIG. 5E)
Experimental: The different cancer cell lines were cultured under standardized conditions. Panc-28 cells were grown in DMEM:Ham's F-12 media containing 2.5% charcoal stripped fetal bovine serum, and cells were treated with DMSO and different concentrations of test compounds as indicated. For longer term cell survival studies, the media was changed every second day, and values were presented for a 4 day experiment. For all other assays, cytosolic, nuclear fractions, or whole cell lysates were obtained at various time points, analyzed by Western blot analysis, and bands were quantitated as previously described (Qin, et al., 2004; Abdelrahim, et al., 2002). Immunocytochemical analysis was determined using Nur77 antibodies as previously reported (Abdelrahim, et al., 2002).

[7] = Panc-28, cotreatment with DIM-C-pPhOH3 or DIM-C-Ph (FIG. 6E)

T2 sequence (P22736 whole entry, change not shown, the tested form may be a part): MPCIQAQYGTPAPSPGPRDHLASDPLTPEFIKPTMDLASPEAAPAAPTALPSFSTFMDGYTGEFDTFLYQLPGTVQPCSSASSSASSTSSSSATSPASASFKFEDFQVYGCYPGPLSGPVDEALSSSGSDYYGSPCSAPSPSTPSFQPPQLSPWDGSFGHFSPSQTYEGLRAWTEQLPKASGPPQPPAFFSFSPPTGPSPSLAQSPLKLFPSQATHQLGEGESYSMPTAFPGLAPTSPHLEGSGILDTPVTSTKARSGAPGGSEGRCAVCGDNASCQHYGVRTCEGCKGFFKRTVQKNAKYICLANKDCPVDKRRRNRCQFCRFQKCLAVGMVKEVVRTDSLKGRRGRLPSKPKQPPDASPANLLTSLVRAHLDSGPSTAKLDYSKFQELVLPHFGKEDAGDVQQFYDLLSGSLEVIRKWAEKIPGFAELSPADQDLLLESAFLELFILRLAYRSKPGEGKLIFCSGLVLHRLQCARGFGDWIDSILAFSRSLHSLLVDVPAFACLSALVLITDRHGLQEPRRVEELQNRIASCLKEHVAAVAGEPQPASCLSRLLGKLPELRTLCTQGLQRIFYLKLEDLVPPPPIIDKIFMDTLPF
T3 sequence (P22736 whole entry): as the sequence (P22736 whole entry, change not shown, the tested form may be a part) above
T5 sequence (P22736 whole entry, the tested form may be a part): as the sequence (P22736 whole entry, change not shown, the tested form may be a part) above
VP-Nur77 (ligand binding domain) / GAL4-coactivator chimeras, sequence (P22736 360-595 limits assumed, change not shown): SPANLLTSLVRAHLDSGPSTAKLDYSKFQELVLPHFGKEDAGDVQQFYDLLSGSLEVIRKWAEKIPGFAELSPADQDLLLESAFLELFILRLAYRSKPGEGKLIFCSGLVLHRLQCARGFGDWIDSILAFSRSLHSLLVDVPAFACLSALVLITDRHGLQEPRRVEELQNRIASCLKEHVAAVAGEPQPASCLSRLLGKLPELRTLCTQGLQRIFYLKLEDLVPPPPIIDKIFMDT
T1 sequence (P22736 360-595 limits assumed): as the sequence (P22736 360-595 limits assumed, change not shown) above

c1ccc(C(c2c[nH]c3ccccc23)c2c[nH]c3ccccc23)cc1 [DIM-C-Ph]
luciferase activity, GAL4-Nur77(E/F)/pGAL4 (GAL4-Nur77(E/F)): induced luciferase activity | luciferase activity, GAL4-Nur77 (full length)/pGAL4 [1]: activated luciferase activity | Nur77 translocation, Western blot of cytosolic and nuclear extracts (Nur77 [2]): translocation from the nucleus is not observed | Nur77 localization by immunostaining (Nur77 [2]): Nur77 remained in the nucleus | PPARγ activation (PPARγ): PPARγ-inactive | TRAIL mRNA levels (TRAIL mRNA): induced TRAIL mRNA levels

COc1cccc(C(c2c[nH]c3ccccc23)c2c[nH]c3ccccc23)c1 [DIM-C-mPhOCH3]
Nur77 activation, structure dependence (isomers and ring-substituted analogs) [1]: Only the para-substituted compound was active

Oc1cccc(C(c2c[nH]c3ccccc23)c2c[nH]c3ccccc23)c1 [DIM-C-mPhOH]
Nur77 antagonist activity (inhibition of agonist-induced transactivation) (GAL4-Nur77): did not inhibit

COc1ccccc1C(c1c[nH]c2ccccc12)c1c[nH]c2ccccc12 [DIM-C-oPhOCH3]
Nur77 activation, structure dependence (isomers and ring-substituted analogs) [1]: Only the para-substituted compound was active

Oc1ccccc1C(c1c[nH]c2ccccc12)c1c[nH]c2ccccc12 [DIM-C-oPhOH]
Nur77 antagonist activity (inhibition of agonist-induced transactivation) (GAL4-Nur77): did not exhibit Nur77 antagonist activity | toxicity in cotreated cells (GAL4-Nur77; high doses (20 μM) of both Nur77 agonists and DIM-C-oPhOH): toxic

FC(F)(F)c1ccc(C(c2c[nH]c3ccccc23)c2c[nH]c3ccccc23)cc1 [DIM-C-pPhCF3]
luciferase activity, GAL4-Nur77(E/F)/pGAL4 (GAL4-Nur77(E/F)): induced luciferase activity | luciferase activity, GAL4-Nur77 (full length)/pGAL4 [1]: activated luciferase activity | Nur77 translocation, Western blot of cytosolic and nuclear extracts (Nur77 [2]): translocation from the nucleus is not observed | Nur77 localization by immunostaining (Nur77 [2]): Nur77 remained in the nucleus | PPARγ activation (PPARγ): also activates PPARγ | transactivation with GAL4-CARM-1 [3]: slightly activated

COc1ccc(C(c2c[nH]c3ccccc23)c2c[nH]c3ccccc23)cc1 [DIM-C-pPhOCH3]
animal weight gain and organ weights (Panc-28 cell xenografts; 25 mg/kg/day vs corn oil): comparable | tumor weights (Panc-28 cell xenografts; 25 mg/kg/day, oral gavage (FIG. 7B)): parallel decrease in tumor weights | tumor growth (area) (Panc-28 cell xenografts; 25 mg/kg/day, oral gavage every second day (FIG. 7A)): significantly inhibited tumor growth | brain regions by H & E staining (Panc-28 cell xenografts; treated vs corn oil): did not indicate any differences | luciferase activity, GAL4-Nur77(E/F)/pGAL4 (GAL4-Nur77(E/F)): induced luciferase activity | annexin V-stained cells (Panc-28 cells [4]): time- and dose-dependent increase | PI staining after 6 hr (Panc-28 cells [4]; Panc-28, 6 hr): minimal PI staining | annexin V-stained cells after 6 hr (Panc-28 cells [4]; Panc-28, 6 hr): significantly increased | PI staining after 12 hr (Panc-28 cells [4]; Panc-28, 12 hr): PI staining was increased | Nur77 activation, structure dependence (isomers and ring-substituted analogs) [1]: active | luciferase activity, GAL4-Nur77 (full length)/pGAL4 [1]: activated luciferase activity | Nur77 translocation, Western blot of cytosolic and nuclear extracts (Nur77 [2]): translocation from the nucleus is not observed | Nur77 localization by immunostaining (Nur77 [2]): Nur77 remained in the nucleus | PPARγ activation (PPARγ): PPARγ-inactive | TRAIL mRNA levels (TRAIL mRNA): induced TRAIL mRNA levels | transactivation with GAL4-CARM-1 [3]: slightly activated | transactivation with GAL4-SRC-3 [3]: induced transactivation

Oc1ccc(C(c2c[nH]c3ccccc23)c2c[nH]c3ccccc23)cc1 [DIM-C-pPhOH]
luciferase activity, GAL4-Nur77(E/F)/pGAL4 (GAL4-Nur77(E/F)): no response was observed | activation of NurRE construct (Nur77 [5]): inactive | effect on cell survival (Panc-28 cells [6]; Panc-28 (FIG. 5A)): did not affect cell survival | cell proliferation at longer time points (Panc-28 cells [6]; Panc-28, 4 and 6 days): slightly inhibited cell proliferation | induction of cell death (Panc-28 cells [6]; Panc-28, concentrations as high as 20 μM): induction of cell death was not observed | luciferase activity, GAL4-Nur77 (full length)/pGAL4 [1]: inactive; also recorded: did not induce activity | inhibition of TRAIL protein expression induced by Nur77 agonists (TRAIL; [7]): inhibited induction | TRAIL protein expression (TRAIL; Panc-28 cells (FIG. 6A)): did not induce TRAIL | Nur77 antagonist activity (inhibition of agonist-induced transactivation) (GAL4-Nur77): antagonizes activation of Nur77 by all three C-DIM compounds | inhibition of PARP cleavage induced by Nur77 agonists (PARP cleavage; [7]): inhibited induction | cleavage of PARP (PARP cleavage; Panc-28 cells (FIG. 5B)): did not induce this response

CC[C@@]1(O)C(=O)OCc2c1cc1n(c2=O)Cc2cc3ccccc3nc2-1 [camptothecin, reference compound]
annexin V-stained cells (Panc-28 cells [4]): comparable

CCC(=C/[C@H](C)C/C=C/C(C)=C/[C@@H](C)C(=O)[C@@H](C)[C@H](O)[C@@H](C)C/C(C)=C/C(=O)O)/C=C/[C@@H]1OC(=O)C=C[C@@H]1C [leptomycin B, Leptomycin B]
PARP cleavage, LMB alone (PARP cleavage; Panc-28, 1 ng/ml (FIG. 5E)): slightly induced PARP cleavage | effect of leptomycin B on PARP cleavage induced by Nur77 agonists (PARP cleavage): not affected | effect of leptomycin B on PARP cleavage induced by Nur77 agonists (PARP cleavage; listed as LMB): enhanced PARP cleavage
